Where “and” joins values, the source holds several entries; their conditions need not be identical. Equal entries are not always repeated. Where two headings read alike, the source gives them in different places.
Key:
bone marrow = settings: for Survival fraction: 24 h
Protocol: (§1) Br. J. Cancer (1993), 67, 441 446 t? […] Bibby Clinical Oncology Unit, University of Bradford, West Yorkshire, BD7 JDP, UK. […] In vivo anti-tumour activity was examined against three transplantable adenocarcinomas of the mouse colon and in vivo bone marrow toxicity was assessed using a spleen colony forming unit assay. The pharmacokinetic behaviour of the drug in vivo and drug stability in vitro was analysed by gas chromatography with electron capture detection. […] Clinical responses to cytotoxic agents have been largely restricted to the haematological malignancies while the majority of human solid tumours have remained refractory to chemotherapy (Marsoni et al., 1987). […] However, their clinical usefulness has been limited by non-selective host toxicity, particularly myelosuppres- sion. The chloroethylnitrosoureas decompose spontaneously in aqueous solution to generate reactive intermediates that are capable of alkylating and carbamoylating nucleophilic targets (Cheng et al., 1972). Alkylation reactions consist of chloroethylations and hydroxyethylations of DNA (Tong et al., 1982). Chloroethylation of 06-guanine with subsequent cross-link formation is considered to be the most important cytotoxic reaction (Lown et al., 1978) while hydroxyethyla- tion reactions are thought to be responsible for their mutagenic and carcinogenic effects (Pelfrene et al., 1976; Swenson et al., 1979). […] In the search for other types of compound that would chloroethylate DNA, a series of 2-haloethylsulphonates was synthesised (Shealy et al., 1983). […] Recently, the NCI has introduced a new disease-orientated screening programme based on the assessment of the in vitro cytotoxicity of a panel of cell lines representing the common clinical forms of human cancers using a colorimetric assay (Boyd, 1989). […] One reason for this discrepancy is that the in vitro tests ignore the potential role played by the pharmacokinetic behaviour and bioavailability of a drug in determining tumour responses in vivo. […] It has been used extensively as part of the pre-clinical evaluation of new anti-cancer agents within the Screening and Pharmacology Group of the EORTC (Bibby et al., 1988b). The feasibility of performing minimal toxicity studies in conjunction with anti-tumour studies has been described (Bibby et al., 1988b). […] Correspondence: A.M. Matthew. Received 6 December 1991; and in revised form 13 October 1992. Br. J. Cancer (1993), 67, 441-446 '?" Macmillan Press Ltd., 1993 442 A.M. MATIHEW et al. ethylating agents with improved therapeutic indices. The assessment of stem cell survival has been recommended to study irreversible cytotoxic bone marrow injury (Schofield, 1986) and this can be performed readily in mice using a spleen colony forming unit assay. […] In vitro activity was assessed against a panel of established murine and human tumour cell lines while in vivo anti-tumour responses were evaluated against an ascitic tumour, MAC 15A, and two solid subcutaneous (sc) tumours, MAC 13 and MAC 26. MAC 13 is relatively nitrosourea-sensitive due to a low level of the repair enzyme 06-alkylguanine-DNA alkyltransferase while MAC 26 is relatively nitrosourea-resistant due to a high repair enzyme level (Lunn et al., 1989). In vivo bone marrow toxicity and pharmacokinetic studies and in vitro drug stability studies were performed in conjunction with the anti-tumour studies. […] Chlorozotocin was dissolved in 10% dimethylsulphoxide (DMSO)/arachis oil. Drug solutions were prepared at an appropriate concentration for the desired in vivo dose to be administered in 0.1 ml per 10 g body weight by intra- peritoneal (ip) or intravenous (iv) injection and for the desired final concentration in vitro to be achieved upon a 1 in 10 dilution. […] Chemosensitivity testing In vitro chemosensitivity was assessed using a modified micro-tetrazolium (MTT) assay (Twenty- man & Luscombe, 1987).

MAC 26 tumours = settings: for Tumour growth delay: MAC 26; for Survivors: MAC 26 bearers
Protocol: as §1

[1] = Pharmacokinetic study, plasma Clomesone by gas chromatography; settings: 50 mg kg-1 ip
Protocol: as §1

MAC 15A ascites tumour = assay: Anti-tumour activity against MAC 15A (median survival time); assay type: in vivo, NMRI mice
Protocol: as §1

HT-29 = assay: In vitro chemosensitivity, MTT assay; assay type: cell-based, human
Protocol: as §1

DLD-1 = assay: In vitro chemosensitivity, MTT assay; assay type: cell-based, human
Protocol: as §1

HRT-18 = assay: In vitro chemosensitivity, MTT assay; assay type: cell-based, human
Protocol: as §1

HCLO = assay: In vitro chemosensitivity, MTT assay; assay type: cell-based, human; settings: area under decay curve of the IC50 over the MTT assay
Protocol: as §1

HCT-18 = assay: In vitro chemosensitivity, MTT assay; assay type: cell-based, human
Protocol: as §1

K562 = assay: In vitro chemosensitivity, MTT assay; assay type: cell-based, human; settings: area under decay curve of the IC50 over the MTT assay
Protocol: as §1

MAC 13 tumours = assay: Anti-tumour activity against MAC 13 (tumour weight); assay type: in vivo, NMRI mice
Protocol: as §1

[2] = parameters: method as in Chan & Barrientos, 1988; settings: previously reported; ref Chan & Barrientos, 1988; cited from earlier work
P388 leukaemia = test system: P388 leukaemia; parameters: method as in Shealy et al., 1984; settings: ref Shealy et al., 1984; cited from earlier work
[3] = Maximum tolerated dose, full dose range to the point of toxicity; settings: ip, mice
Protocol: (§2) Br. J. Cancer (1993), 67, 441 446 t? […] Bibby Clinical Oncology Unit, University of Bradford, West Yorkshire, BD7 JDP, UK. […] In vivo anti-tumour activity was examined against three transplantable adenocarcinomas of the mouse colon and in vivo bone marrow toxicity was assessed using a spleen colony forming unit assay. The pharmacokinetic behaviour of the drug in vivo and drug stability in vitro was analysed by gas chromatography with electron capture detection. […] Clinical responses to cytotoxic agents have been largely restricted to the haematological malignancies while the majority of human solid tumours have remained refractory to chemotherapy (Marsoni et al., 1987). […] However, their clinical usefulness has been limited by non-selective host toxicity, particularly myelosuppres- sion. The chloroethylnitrosoureas decompose spontaneously in aqueous solution to generate reactive intermediates that are capable of alkylating and carbamoylating nucleophilic targets (Cheng et al., 1972). Alkylation reactions consist of chloroethylations and hydroxyethylations of DNA (Tong et al., 1982). Chloroethylation of 06-guanine with subsequent cross-link formation is considered to be the most important cytotoxic reaction (Lown et al., 1978) while hydroxyethyla- tion reactions are thought to be responsible for their mutagenic and carcinogenic effects (Pelfrene et al., 1976; Swenson et al., 1979). […] The assessment of stem cell survival has been recommended to study irreversible cytotoxic bone marrow injury (Schofield, 1986) and this can be performed readily in mice using a spleen colony forming unit assay. […] In vitro activity was assessed against a panel of established murine and human tumour cell lines while in vivo anti-tumour responses were evaluated against an ascitic tumour, MAC 15A, and two solid subcutaneous (sc) tumours, MAC 13 and MAC 26. […] Chemosensitivity testing In vitro chemosensitivity was assessed using a modified micro-tetrazolium (MTT) assay (Twenty- man & Luscombe, 1987).

[4] = In vitro stability in complete RPMI 1640 tissue culture medium; assay type: in vitro ADME; settings: complete RPMI 1640 medium, 37 C, initial 10 ug/ml
Protocol: as §2, with “sion.” for “sion. The chloroethylnitrosoureas decompose spontaneously in aqueous solution to generate reactive intermediates that are capable of alkylating and carbamoylating nucleophilic targets (Cheng et al., 1972). Alkylation reactions consist of chloroethylations and hydroxyethylations of DNA (Tong et al., 1982). Chloroethylation of 06-guanine with subsequent cross-link formation is considered to be the most important cytotoxic reaction (Lown et al., 1978) while hydroxyethyla- tion reactions are thought to be responsible for their mutagenic and carcinogenic effects (Pelfrene et al., 1976; Swenson et al., 1979).”

MAC 16 = assay: In vitro chemosensitivity, MTT assay; assay type: cell-based, murine; settings: area under decay curve of the IC50 over the MTT assay
Protocol: (§3) Br. J. Cancer (1993), 67, 441 446 t? […] Bibby Clinical Oncology Unit, University of Bradford, West Yorkshire, BD7 JDP, UK. […] In vivo anti-tumour activity was examined against three transplantable adenocarcinomas of the mouse colon and in vivo bone marrow toxicity was assessed using a spleen colony forming unit assay. The pharmacokinetic behaviour of the drug in vivo and drug stability in vitro was analysed by gas chromatography with electron capture detection. […] Clinical responses to cytotoxic agents have been largely restricted to the haematological malignancies while the majority of human solid tumours have remained refractory to chemotherapy (Marsoni et al., 1987). […] However, their clinical usefulness has been limited by non-selective host toxicity, particularly myelosuppres- sion. The chloroethylnitrosoureas decompose spontaneously in aqueous solution to generate reactive intermediates that are capable of alkylating and carbamoylating nucleophilic targets (Cheng et al., 1972). Alkylation reactions consist of chloroethylations and hydroxyethylations of DNA (Tong et al., 1982). Chloroethylation of 06-guanine with subsequent cross-link formation is considered to be the most important cytotoxic reaction (Lown et al., 1978) while hydroxyethyla- tion reactions are thought to be responsible for their mutagenic and carcinogenic effects (Pelfrene et al., 1976; Swenson et al., 1979). […] In the search for other types of compound that would chloroethylate DNA, a series of 2-haloethylsulphonates was synthesised (Shealy et al., 1983). […] Recently, the NCI has introduced a new disease-orientated screening programme based on the assessment of the in vitro cytotoxicity of a panel of cell lines representing the common clinical forms of human cancers using a colorimetric assay (Boyd, 1989). […] One reason for this discrepancy is that the in vitro tests ignore the potential role played by the pharmacokinetic behaviour and bioavailability of a drug in determining tumour responses in vivo. […] It has been used extensively as part of the pre-clinical evaluation of new anti-cancer agents within the Screening and Pharmacology Group of the EORTC (Bibby et al., 1988b). The feasibility of performing minimal toxicity studies in conjunction with anti-tumour studies has been described (Bibby et al., 1988b). […] Correspondence: A.M. Matthew. Received 6 December 1991; and in revised form 13 October 1992. Br. J. Cancer (1993), 67, 441-446 '?" Macmillan Press Ltd., 1993 442 A.M. MATIHEW et al. ethylating agents with improved therapeutic indices. The assessment of stem cell survival has been recommended to study irreversible cytotoxic bone marrow injury (Schofield, 1986) and this can be performed readily in mice using a spleen colony forming unit assay. […] In vitro activity was assessed against a panel of established murine and human tumour cell lines while in vivo anti-tumour responses were evaluated against an ascitic tumour, MAC 15A, and two solid subcutaneous (sc) tumours, MAC 13 and MAC 26. MAC 13 is relatively nitrosourea-sensitive due to a low level of the repair enzyme 06-alkylguanine-DNA alkyltransferase while MAC 26 is relatively nitrosourea-resistant due to a high repair enzyme level (Lunn et al., 1989). […] Chemosensitivity testing In vitro chemosensitivity was assessed using a modified micro-tetrazolium (MTT) assay (Twenty- man & Luscombe, 1987).

WEHI-3B = assay: In vitro chemosensitivity, MTT assay; assay type: cell-based, murine; settings: area under decay curve of the IC50 over the MTT assay
Protocol: as §3

MAC 26 = assay: In vitro chemosensitivity, MTT assay; assay type: cell-based, murine
Protocol: as §3

MAC 15A = assay: In vitro chemosensitivity, MTT assay; assay type: cell-based, murine; settings: area under decay curve of the IC50 over the MTT assay
Protocol: as §3

[5] = area under decay curve of the IC50 over the MTT assay

## CS(=O)(=O)CS(=O)(=O)OCCCl [Clomesone, 2-chloroethyl(methylsulphonyl)methanesulphonate]
Bone marrow; 25 mg kg-1 ip
  Survival fraction: 0.80
Bone marrow; 50 mg kg-1 ip
  Survival fraction: 0.59
Bone marrow; 100 mg kg-1 ip, colonies observed vs expected
  Survival fraction: 0.20 and 0.16
Bone marrow; maximum tolerated dose of 100 mg kg-1 ip
  reduction in colony forming units: 5 fold
MAC 26 tumours; 25 mg kg-1 ip
  Tumour growth delay: 0 days
  Survivors: 10/10
MAC 26 tumours; 50 mg kg-1 ip
  Tumour growth delay: 0.8 days
  Survivors: 10/10
MAC 26 tumours; 100 mg kg-1 ip
  Tumour growth delay: 0.8 days
  Survivors: 10/10
MAC 26 tumours; 150 mg kg-1 ip
  Survivors: 0/10
MAC 26 tumours; 200 mg kg-1 ip
  Survivors: 0/10
[1]
  Time to peak plasma levels: ≤ 2 min
  area under the plasma concentration versus time curve, mean value: 6.77 .ghmlh'
  areas under the plasma concentration versus time curves, range: 5.70-8.04 lagh ml-'
[1]; female non-tumour bearing mice, three experiments
  Peak plasma levels, mean value: 28.0 ggmlh'
[1]; plasma
  mean terminal half-life: 8.1 min
  terminal half-life, range: 4.8 to 10.8 min
[1]; three experiments
  Peak plasma levels, range: 18.1-35.9 jigml-'
MAC 15A ascites tumour; 12.5 mg kg-1 ip
  T/C%: 88%
MAC 15A ascites tumour; 12.5 mg kg-1 iv
  T/C%: 100%
MAC 15A ascites tumour; 25 mg kg-1 ip
  T/C%: 138%
MAC 15A ascites tumour; 25 mg kg-1 iv
  T/C%: 100%
MAC 15A ascites tumour; 50 mg kg-1 ip
  T/C%: 163%
MAC 15A ascites tumour; 50 mg kg-1 iv
  T/C%: 125%
MAC 15A ascites tumour; 100 mg kg-1 ip, median survival time treated/control
  T/C%: 133% and 163%
HT-29; MTT, 4 days, n = 4
  IC50: > 100 igm9l-'
HT-29; [5]
  c x t (concentration-time product): > 528 fig h ml- '
DLD-1; MTT, 4 days, n = 4
  IC50: > 100 igm9l-'
DLD-1; [5]
  c x t (concentration-time product): > 528 fig h ml- '
HRT-18; MTT, 4 days, n = 4
  IC50: > 100 igm9l-'
HRT-18; [5]
  c x t (concentration-time product): > 528 fig h ml- '
HCLO
  c x t (concentration-time product): 146 fig h ml- '
HCT-18; MTT, 4 days, n = 4
  IC50: > 100 igm9l-'
HCT-18; [5]
  c x t (concentration-time product): > 528 fig h ml- '
K562
  c x t (concentration-time product): 207 fig h ml- '
MAC 13 tumours; 12.5 mg kg-1 ip
  % Tumour weight inhibition: 21.6%
MAC 13 tumours; 12.5 mg kg-1 iv
  % Tumour weight inhibition: 45.9%
MAC 13 tumours; 25 mg kg-1 ip
  % Tumour weight inhibition: 13.5%
MAC 13 tumours; 25 mg kg-1 iv
  % Tumour weight inhibition: 21.6%
MAC 13 tumours; 50 mg kg-1 iv
  % Tumour weight inhibition: 47.3%
MAC 13 tumours; 100 mg kg-1 ip, assessed 17 days later
  % Tumour weight inhibition: 48.3%
[2]
  t1/2 in mouse plasma: 51 min
P388 leukaemia
  Activity against P388 leukaemia in vivo (in words): highly effective
[3]
  Maximum tolerated dose: 100 mg kg-'
[4]
  1st order rate constant (k) of degradation: 0.205
  t1/2 in tissue culture medium: 203 min
MAC 16
  c x t (concentration-time product): 177 fig h ml- '
WEHI-3B
  c x t (concentration-time product): 150 fig h ml- '
MAC 26; MTT, 4 days, one experiment only
  IC50: 35 igm9l-'
MAC 26; [5]
  c x t (concentration-time product): 185 fig h ml- '
MAC 15A
  c x t (concentration-time product): 54 fig h ml- '
